Source: patent US20260232666A1, “COMPOSITIONS AND METHODS FOR INHIBITION OF RAS” (TheRas, Inc., priority 2023, published 2026)

How the values were obtained:
[1] = molecular target: T1, GDP-loaded KRAS4b (amino acids 1-169) G12C/C118S protein (Homo sapiens, UniProt P01116, C118S/G12C); test: Covalent cysteine 12 modification by MALDI-TOF MS, GDP-loaded KRAS G12C; format: binding; details: 15 minutes reaction time point
T1 construct: KRAS4b (amino acids 1-169) G12C/C118S protein; made in house
Outline: (§1)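 Percent modification comes from MALDI-TOF peak heights: the compound-adduct peak divided by the sum of the remaining-protein and adduct peaks. Reactions contained 1 μM protein and compound at a 1:2.5 ratio, in pH 7.3 HEPES buffer with NaCl and MgCl2, held 15 min at room temperature.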

pERK in NCI-H358 cells = test: Cell-based pERK HTRF assay (pERK inhibition in H358 cells); details: Homo sapiens, NCI-H358, 0.5 h, 30 min incubation
Outline: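 NCI-H358 cells were seeded at 4×10^4 cells/well in RPMI/10% FBS, then treated next day for 30 min at 0.25% DMSO (9-point, 3-fold series from 75 μM). Lysates were read by HTRF (d2/Eu cryptate antibody pair, 615 nm emission) after 4–24 h at room temperature to give pERK IC50.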

[2] = molecular target: T2, Avi-KRAS G12C (1-169) GppNHp/RAF1 RBD-3×FLAG (52-151) (Homo sapiens, UniProt P01116, G12C); test: Raf1 RBD-KRAS G12C-GppNHp disruption assay (protein:protein interaction HTRF); format: biochemical
T2 construct: Avi-KRAS G12C (1-169) GppNHp; Avi (N)
Description: Biological Example 2: Disrupting KRAS G12C-Effector Binding (Protein: Protein Interaction HTRF Assay)
A protein: protein interaction (PPI) Homogeneous Time Resolved Fluorescence (HTRF) assay was used to determine the effectiveness of compounds of the present disclosure in disrupting KRAS G12C protein and effector (RAF1 Ras Binding Domain (RBD)) binding.
The HTRF assay used the following reagents and proteins: 50 nM Avi-KRAS G12C (1-169) GppNHp/RAF1 RBD-3×FLAG (52-151); 35 nM Avi-PI3K RBD-3×FLAG; Assay Buffer: 50 mM Tris pH 7.5, 100 mM NaCl, 5 mM MgCl2, 0.1% BSA, 0.01% Tween 20, 10% DMSO; Bead Buffer: 50 mM Tris pH 7.5, 0.01% Tween 20; Assay volume: 20 μL (384 well plate-low volume format); and Compound titration: 30-0.02 μM, 3× dilution series.
The HTRF assay employed the following protocol:
Compounds were dispensed in assay plate (384-well, Grenier Bio-One #784075) using Echo (model 555) with dose response settings: 200 nL final volume, titration from 100 μM as a 10-point dilution series. KRAS proteins were prepared in assay buffer, and dispensed on plates, 5 μL per well, then incubated for 1 h at room temperature, with 700 rpm shaking. RAF1 RBD were prepared in assay buffer, dispensed onto plates, 5 μL per well, and then incubated for 1 h at room temperature, with 700 rpm shaking. Reagent mix was then prepared and dispensed on plates, 10 μL per well, and then incubated for 1 h at room temperature, with 700 rpm shaking.
Plates were analyzed on an Envision plate reader using the following setting: Excitation 320 nm, Bandwidth 75 nm; Emission 615 nm, Bandwidth 85 nm; Gain 100%; Flashes 100; Lag 60 μs. Data was reported as percentage of activity, with DMSO as 100%. Data was plotted and analyzed using Prism 8.
The percent of modification of GppNHp, GTP, or GDP loaded KRAS G12C by MALDI-TOF MS, biochemical Raf1 RBD-KRAS G12C-GppNHp disruption assay IC50, and pERK inhibition IC50 of selected compounds described herein are shown in Table 4. For percent of modification at 15 minutes (MALDI-TOF MS) of GppNHp, GTP, or GDP loaded KRAS G12C: A: percent of modification ≥70%; B: 50≤percent of modification <70%; C: 10%≤percent of modification <50%; D: percent of modification <10%. […] For pERK inhibition in H358 cell assay: A: IC50≤0.1 μM; B: 0.1 μM<IC50≤1 μM; C: IC50>1 μM. Blanks in the table represent that compound was not tested in the indicated assay.

[3] = molecular target: T3, GTP-loaded KRAS4b (amino acids 1-169) G12C/C118S protein (Homo sapiens, UniProt P01116, C118S/G12C); test: Covalent cysteine 12 modification by MALDI-TOF MS, GTP-loaded KRAS G12C; format: binding; details: 15 minutes reaction time point
T3 construct: KRAS4b (amino acids 1-169) G12C/C118S protein; made in house
Outline: as §1

[4] = molecular target: T4, GppNHp-loaded KRAS4b (amino acids 1-169) G12C/C118S protein (Homo sapiens, UniProt P01116, C118S/G12C); test: Covalent cysteine 12 modification by MALDI-TOF MS, GppNHp-loaded KRAS G12C; format: binding; details: 15 minutes reaction time point
T4 construct: KRAS4b (amino acids 1-169) G12C/C118S protein; made in house
Outline: as §1

For `C=CC(=O)N1CC[C@@H](N(C)c2nc(OC[C@@H]3CCCN3CC)nc3c(F)c(-c4ccc(F)c5sc(N)c(C#N)c45)c(Cl)cc23)[C@H]1C` [Compound 89], the “GDP-KRAS G12C percent of modification” value [1] was “A (percent of modification ≥70%)”, the IC50 (pERK in NCI-H358 cells) was less than 100 nM and the IC50 [2] was less than 500 nM.
With `C=CC(=O)N1CC[C@@H](N(C)c2nc(OC[C@@]34CCCN3C[C@H](OC)C4)nc3c(F)c(-c4ccc(F)c5sc(N)c(C#N)c45)c(Cl)cc23)[C@H]1C` [Compound 160] the “GTP-KRAS G12C percent of modification” value [3] was “A (percent of modification ≥70%)”, the IC50 (pERK in NCI-H358 cells) was less than 100 nM and the IC50 [2] was less than 500 nM.
In the case of `C=CC(=O)N1CC[C@@H](N(C)c2nc(OC[C@@H]3CCCN3C)nc3c(F)c(-c4ccc(F)c5sc(N)c(C#N)c45)c(C(F)(F)F)cc23)[C@@H]1C` [Compound 38], the IC50 (pERK in NCI-H358 cells) is reported as less than 100 nM, the “GppNHp-KRAS G12C percent of modification” value [4] is reported as “A (percent of modification ≥70%)” and the IC50 [2] is reported as less than 500 nM.
`C=CC(=O)N1CC[C@H](N(C)c2nc(OC[C@@]34CCCN3C[C@H](F)C4)nc3c(F)c(-c4ccc(F)c5sc(N)c(C#N)c45)c(C(F)(F)F)cc23)[C@@H]1C` [Compound 5] was tested, and the “GDP-KRAS G12C percent of modification” value [1] was “A (percent of modification ≥70%)” and the IC50 [2] was less than 500 nM.
In the case of `C=CC(=O)N1CC[C@@H](N(C)c2nc(OC[C@@]34CCCN3C[C@H](F)C4)nc3c(F)c(-c4ccc(F)c5sc(N)c(C#N)c45)c(C(F)(F)F)cc23)[C@H]1C` [Compound 6], the “GDP-KRAS G12C percent of modification” value [1] is reported as “B (50≤percent of modification <70%)”, the “GTP-KRAS G12C percent of modification” value [3] is reported as “C (10%≤percent of modification <50%)” and the IC50 [2] is reported as less than 500 nM.
